Experiments:
Type in all cases: physicochemical
[1] = Critical micelle concentration (Kibron CMC) and surface tension, Kibron Delta-8 multichannel microtensiometer; conditions: for Kibron CMC: sodium salt in water, twelve two-fold dilutions starting at 1 wt %; for Surface Tension (1%): sodium salt, 1 wt % in water
Experimental: The critical micelle concentration (Kibron CMC) and surface tension of the N-alkyl pyroglutamic acids (as Na^+ salts) and related commercial surfactants were evaluated. For each sample, a total of twelve dilutions starting at 1 wt % were prepared, reducing the concentration in each dilution by half by taking an aliquot of the previous dilution and adding the same amount of water. The surface tension of all 12 dilutions was measured using a Kibron Delta-8 multichannel microtensiometer. Sample volume for each analysis was 50 μL.

[2] = Shake foam test (foam height); conditions: sodium salt, 0.1 wt % solution, shaken 20 times, t=0, average of three replicates
Experimental: Foaming profile of the N-alkyl pyroglutamates are evaluated using a shake foam test, and evaluated against sodium laureth sulfate. For each sample, a 0.1 wt % solution is prepared by diluting 50 mg active to 50 g in water. The 0.1 wt % solution is added to a 100 mL graduated cylinder and capped. The cylinder is shaken by hand 20 times, each time the cylinder is inverted and brought back to an upright position. Foam height (in mL) is defined as the highest point of the top layer of the foam in the graduated cylinder. If the top of the foam was not flat, the midpoint of the top of the foam was reported. Foam height is read immediately after the solution settled (t=0). Three replicates are done for each sample, and the reported foam height (in mL) is the average reading of the three replicates.

[3] = Water solubility of sodium salts; conditions: for pH: pH of the sodium salt solution after neutralization
Experimental: Selected N-alkyl pyroglutamic acids are converted into their sodium salt by neutralizing them in water with sodium hydroxide. In general, a known amount of sample is placed in a vial and a known amount of water is added. Sample is neutralized with 25 wt % sodium hydroxide in water until pH is >7. Mild heating (50° C.) is applied when necessary to aid dissolution. The final mass is recorded. The weight percent of the solution is determined by mass of the sodium salt over the total mass of solution, and multiplying by 100. The pH of the solution is recorded after neutralization. No effort was done to prepare a saturated solution.

| Kibron CMC [1] [ppm] | Surface Tension (1%) [1] [Dynes/cm] | Shake Foam t = 0 [2] [mL] | pH [3] | Solubility ([3]; sodium salt in water, neutralized with NaOH, no saturated solution prepared) [wt %] | Compound |
| --- | --- | --- | --- | --- | --- |
| 625 | 38 | 36 | 10.0 |  | CCC(CCCC(C)CCCC(C)C)CCN1C(=O)CCC1C(=O)O (stereo not shown) [Example 1] |
| >10000 | 34 | 11 | 7.3 |  | CCCCCC(CCC)CN1C(=O)CCC1C(=O)O (stereo not shown) [Example 2] |
| 78 | 29 | 29 | 7.1 | 15.4 | CCCCCCCCCCC(CCCCCCCC)CN1C(=O)CCC1C(=O)O (stereo not shown) [Example 4] |

From patent publication US9260388B2, “Process for preparing alkyl pyroglutamic acids” (DOW GLOBAL TECHNOLOGIES LLC, priority 2011, dated 2016)
